One may read the melting point as the temperature of the solid-liquid transition. Take `Nc1ccc(C(=O)Nc2ccc(Cl)nc2)cc1F` [Compound 41, 4-Amino-N-(6-chloro-pyridin-3-yl)-3-fluoro-benzamide]: the melting point worked out at 193 °C.
The same measure for `O=C(Nc1ccc(Cl)nc1)c1ccc([N+](=O)[O-])c(F)c1` [Compound 37, N-(6-Chloro-pyridin-3-yl)-3-fluoro-4-nitro-benzamide]: 205 °C; for `O=C(Nc1ccc(Cl)nc1)c1ccc(-c2ccccc2)cc1` [Compound 6, Biphenyl-4-carboxylic acid (6-chloro-pyridin-3-yl)-amide]: 227 to 229 °C; for `O=C(Nc1ccc(Cl)nc1)c1ccc(NC(=O)c2ccccn2)cc1` [Compound 35, Pyridine-2-carboxylic acid [4-(6-chloro-pyridin-3-ylcarbamoyl)-phenyl]-amide]: 258 to 260 °C.
For `O=C(Nc1ccc(Cl)nc1)c1ccc(C(F)(F)F)c(F)c1` [Compound 12, N-(6-Chloro-pyridin-3-yl)-3-fluoro-4-trifluoromethyl-benzamide], the melting point turned out to be 182 °C.
Molecule `O=C(Nc1ccc(Cl)nc1)c1ccc([N+](=O)[O-])cc1` [Compound 42, N-(6-Chloro-pyridin-3-yl)-4-nitro-benzamide] returned a melting point of 193 °C.
`O=C(Nc1ccc(Cl)nc1)c1ccc(Cl)s1` [Compound 20, 5-Chloro-thiophene-2-carboxylic acid (6-chloro-pyridin-3-yl)-amide]: the melting point lay in the range of 215 to 216 °C.
Consider `O=C(Nc1ccc(Cl)nc1)c1ccc(Cl)c(Cl)c1` [Compound 2, 3,4-Dichloro-N-(6-chloro-pyridin-3-yl)-benzamide], for which the melting point is 188 to 189 °C.
`O=C(Nc1ccc(Cl)nc1)c1ccc(Cl)o1` [Compound 21, 5-Chloro-furan-2-carboxylic acid (6-chloro-pyridin-3-yl)-amide] showed a melting point of 143 to 144 °C.
The same measure for `O=C(Nc1ccc(Cl)nc1)c1ccc(N2CCOCC2)c(F)c1` [Compound 31, N-(6-Chloro-pyridin-3-yl)-3-fluoro-4-morpholin-4-yl-benzamide]: 228 to 229 °C; for `O=C(Nc1ccc(Cl)nc1)c1ccc(NCc2ccccn2)c(F)c1` [Compound 33, N-(6-Chloro-pyridin-3-yl)-3-fluoro-4-[(pyridin-2-ylmethyl)-amino]-benzamide]: 210 to 211 °C.
On to `Cc1cc(C(=O)Nc2ccc(Cl)nc2)ccc1[N+](=O)[O-]` [Compound 16, N-(6-Chloro-pyridin-3-yl)-3-methyl-4-nitro-benzamide], for which the melting point is 192 to 193 °C.
On to `O=C(Nc1ccc(Cl)nc1)c1cccc(Cl)c1` [Compound 5, 3-Chloro-N-(6-chloro-pyridin-3-yl)-benzamide], for which the melting point is 153 to 154 °C.
For the molecule `O=C(Nc1ccc(Cl)nc1)c1ccc(Cl)cc1` [Compound 14, N-(6-Chloro-pyridin-3-yl)-4-chloro-benzamide], the melting point is 197 to 199 °C.
Molecule `CCc1ccc2[nH]c(C(=O)Nc3ccc(Cl)nc3)cc2c1` [Compound 24, 5-Ethyl-1 H-indole-2-carboxylic acid (6-chloro-pyridin-3-yl)-amide] yielded a melting point of 270 °C.
`CN(C)c1ccc(C(=O)Nc2ccc(Cl)nc2)cc1F` [Compound 34, N-(6-Chloro-pyridin-3-yl)-4-dimethylamino-3-fluoro-benzamide] showed a melting point of 170 to 171 °C.
The same measure for `O=C(Nc1ccc(Cl)nc1)c1cc2cc(Cl)ccc2[nH]1` [Compound 18, 5-Chloro-1 H-indole-2-carboxylic acid (6-chloro-pyridin-3-yl)-amide]: 296 °C; for `O=C(Nc1ccc(Cl)nc1)c1cccc(F)c1` [Compound 9, N-(6-Chloro-pyridin-3-yl)-3-fluoro-benzamide]: 160 °C; for `O=C(Nc1ccc(Cl)nc1)c1cc2cc(Cl)ccc2o1` [Compound 19, 5-Chloro-benzofuran-2-carboxylic acid (6-chloro-pyridin-3-yl)-amide]: 222 to 223 °C.
The molecule `Cc1c(C(=O)Nc2ccc(Cl)nc2)[nH]c2ccccc12` [Compound 23, 3-Methyl-1 H-indole-2-carboxylic acid (6-chloro-pyridin-3-yl)-amide] registered a melting point of 184 to 185 °C.
For `O=C(Nc1ccc(F)nc1)c1cnc(F)c(F)c1` [Compound 15, 5,6-Difluoro-N-(6-fluoro-pyridin-3-yl)-nicotinamide], the melting point was in the range of 135 to 137 °C.
Molecule `O=C(Nc1ccc(Cl)nc1)c1cc2cc(F)ccc2[nH]1` [Compound 17, 5-Fluoro-1 H-indole-2-carboxylic acid (6-chloro-pyridin-3-yl)-amide] returned a melting point of 290 °C.
In the case of `O=C(Nc1ccc(Cl)nc1)c1ccc(Cl)nc1` [Compound 7, 6-Chloro-N-(6-chloro-pyridin-3-yl)-nicotinamide], the melting point is 228 °C.
With `O=C(Nc1ccc(Cl)nc1)c1cccc(C(F)(F)F)c1` [Compound 3, N-(6-Chloro-pyridin-3-yl)-3-trifluoromethyl-benzamide], the melting point lay within 139 to 140 °C.
The molecule `O=C(Nc1ccc(Cl)nc1)c1cc2ccccc2[nH]1` [Compound 26, 1H-Indole-2-carboxylic acid (6-chloro-pyridin-3-yl)-amide] yielded a melting point of 260 to 263 °C.
Molecule `O=C(Nc1ccc(Cl)nc1)c1cccc(C(F)(F)F)c1` [Compound 10, N-(6-Chloro-pyridin-3-yl)-3-(trifluoromethyl)-benzamide] returned a melting point of 169 to 170 °C.
Molecule `O=C(Nc1ccc(Cl)nc1)c1ccccc1` [Compound 25, N-(6-Chloro-pyridin-3-yl)-benzamide] gave a melting point of 163 to 164 °C.

(Values after patent US6495550B2, “Pyridine-substituted benzanilides as potassium ion channel openers” (ICAgen, Inc., priority 1999, dated 2002).)
